{
  "source": "patent US8956645B2",
  "about": "“Water-soluble pharmaceutical composition comprising at least one therapeutically active substance having hydrophobic properties and at least one compound selected from among sialoglycosphingolipids, glycosphingolipids or a mixture of sialoglycosphingolipids and glycosphingolipids” (Consejo Nacional de Investigaciones Cientificas y Tecnicas …, priority 2010, dated 2015)",
  "key": {"[1]": {"tested_on": "VERO and MA cells", "experiment": "Cell viability by MTT assay, non-tumoral cells", "assay_type": "cell-based", "conditions": "24 hours", "protocol": "FIG. 6: VERO and MA cells of non tumoral origin were incubated with increasing concentrations of: a)-( ? ) Ptx in DMSO, b)-( ? ) micelles of Ptx-GM1 1/25, c)-( ? ) micelles of GM1 and d)-( ? ) micelles of the albumine-Ptx-GM1 complex. Cellular viability was evaluated using MTT assay marker after 24 hs incubation.\n(§1) Different cell types, tumoral such as HEP-2 and Hela, and non-tumoral as VERO and MA were incubated in MEM medium containing 2% fetal bovine serum (Natocor-Villa Carlos Paz—Córdoba—Argentina) in a CO2 incubator with 5% CO2, to confluence. Different concentrations of the compositions mentioned below were added to the cell culture: […]\n(§2) a)—Ptx in DMSO as positive control b)—Ptx-GM1 micelles 1/25 molar ratio c)—GM1 micelles in equal concentrations as in b), to control the effect of the GM1 itself, and d)—micelles of the albumin-Ptx-GM1 complex\n(§3) Cell viability was evaluated by MTT assay after 24 hours of incubation."}, "[2]": {"tested_on": "HEP-2 and Hela cells", "experiment": "Cell viability by MTT assay, tumoral cells", "assay_type": "cell-based", "conditions": "24 hours", "protocol": "FIG. 7: HEP-2 and HELA cells of tumor origin were incubated with increasing concentrations of: a)-( ? ) Ptx in DMSO, b)-( ? ) Ptx-GM1 micelles 1/25, c)-( ? ) GM1 micelles and d)-( ? ) micelles of the GM1-Ptx-albumine complex. Cellular viability was evaluated using MTT assay after 24 hs incubation.\nas §1, §2, §3"}},
  "data": [
    {"smiles": "CC(=O)O[C@H]1C(=O)[C@@]2(C)[C@H]([C@H](OC(=O)c3ccccc3)[C@]3(O)C[C@H](OC(=O)[C@H](O)[C@@H](NC(=O)c4ccccc4)c4ccccc4)C(C)=C1C3(C)C)[C@]1(OC(C)=O)CO[C@@H]1C[C@@H]2O", "note": "[Ptx, paclitaxel]", "values": [
      {"measurement": "concentration producing complete death", "setting": "[1]", "result": 100, "unit": "ng/mL"},
      {"measurement": "concentration producing complete death", "setting": "[2]", "result": 10, "unit": "ng/mL"}
    ]}
  ]
}
